{"source": "patent US20080206203A1", "about": "“Method for Inhibiting Tumor Metastasis” (Inflammation Research Center Company Ltd., priority 2004, published 2008)", "key": {"[1]": {"system": "permeability of blood brain barrier and infiltration of white blood cells to cerebrospinal fluid caused by arachidonic acid", "test": "arachidonic acid-induced central nervous system inflammation (CSF volume and WBC counts via subarachnoid cannula)", "type": "in vivo, rat", "from_the_text": "To investigate the role of leukotriene antagonists in the treatment of inflammation, a sensitive and quantitative method to measure inflammation for the central nervous system was developed. Important changes in the inflammatory process can be monitored, as both the permeability of blood brain barrier (BBB) and the infiltration of white blood cells (WBC) to cerebrospinal fluid (CSF) caused by arachidonic acid can be measured over time from the same experimental animal. In particular, the effect of the leukotriene C4 and D4 antagonist, pranlukast, was studied using this method. Changes in the inflammatory process of both the permeability of BBB and the infiltration of white blood cells (WBC) caused by administering arachidonic acid as a nociceptive stimulus were observed.\nMale rats, approximately 350-400 g, were anesthetized with sodium pentobarbital at a dose of 50 mg/kg intraperitoneally (i.p.). Animals were then placed in a stereotaxic unit. Fur from the top of the head to neck was shaved. The study area was disinfected with 70% ethanol followed by a 10% providone-iodine solution. Skin and muscle over the cervical cord were dissected until cervical vertebrae were exposed. A hole was made using a 23 G3/4 needle passing through the dura via the cisterna magna. One end of a 2-3 mm PE10 cannula (0.011 “I.D., 0.007” thick, 0.024″ O.D., 6.5 cm long) was inserted into the subarachnoid space at the cervical cord so as to avoid damage to neuronal tissue (FIG. 3). The cannula was fixed with cyanoacrylic glue to the peripheral tissue. The other end of PE10 was used for administration of a nociceptive stimulus, such as arachidonic acid (AA; 3.25 μg/2 μl) and subsequently for collecting cerebrospinal fluid (CSF) every thirty minutes thereafter during the 11-hour experimental period. The cannula filled with CSF immediately after the cannulation.\nAir was infused to inject AA to the subarachnoid space. The muscles and skin were closed with surgical staples. The rat was then removed from the stereotaxic unit and placed on a heat pad and continuously monitored.\nIn the interaction study, the leukotriene C4 and D4 antagonist, pranlukast, was administered (490 mg/kg, i.p.) thirty minutes before administration of arachidonic acid (AA). If the effects of the anesthesia appeared to be wearing off, an additional 0.05-0.1 ml pentobarbital (50 mg/ml, i.p.) dose was administered. If at any time during the experiment, the animal appeared to be in pain or distress, the study was immediately stopped and the animal was euthanized.\nIn the present study, the volume (μl) of cerebrospinal fluid (CSF) and white blood cell (WBC) counts in CSF was measured every thirty minutes for 11 hours from the same rat. One side of the cannula (PE10) was inserted into the subarachnoid space under pentobarbital anesthesia, avoiding neuronal damage (FIG. 3). If the brain tissue is damaged, the volume of CSF and WBC increases immediately without the administration of arachidonic acid. Since there are no WBC in the CSF in the normal rat, only rats that had no WBC in the CSF immediately after the cannulation were used. Another side of the cannula remained open and was used for the administration of nociceptive stimuli (arachidonic acid, LPS, dextran, etc.) and subsequently for collecting the CSF every thirty minutes during the experiment. The CSF volume was measured using a micropipette and WBC in the CSF were counted by means of a hemacytometer."}, "[2]": {"system": "rat ischemia model", "test": "rat ischemia model, reversible 30 minute occlusion of both carotid arteries followed by reperfusion", "type": "in vivo", "conditions": "pre-treatment", "method": "One of 4-5 rats survived for one week when pranlukast (450 mg/kg i.p.) was administered 30 minutes before the occlusion."}, "[3]": {"system": "RCN-9, a colon cancer cell line", "test": "interaction study with RCN9 cancer cells i.v.", "type": "in vivo, rat", "method": "To test for inhibition of metastasis, pranlukast is administered orally (instead of intraperitoneally as was done in Example 2) before intravenous injection of the cancer cells. Arachidonic acid (AA) is then administered to the subarachnoid space two hours after pranlukast administration. The volume of CSF, white blood cell counts and cancer cell counts in the CSF are measured every 30 minutes.\nCultured human cancer cell lines, Colo 201 (colon cancer) and MKN 74 ([…]), and a cultured rat cancer cell line RCN9 were purchased from Health Science Research Resources Bank (Rinku-minamihama 2-11, Sennan-shi, Osaka, 590-0535, Japan). Human lung cancer cell line QG56 was a gift from Dr. Yukito Ichinose, Department of Laboratory Medicine, Kyusyu Cancer Center, Hukuoka, Japan. Cells were cultured at 37° C. and 5% CO2, in RPMI-1640 (SIGMA, MO, USA) supplemented with 5% fetal bovine serum, 2 mM L-glutamine (Gibco), 100 units penicillin, 100 μg/ml streptomycin (Gibco Invitrogen Corp., Grand Island, N.Y., USA).\nRats were anesthetized by sodium pentobarbital (50 mg/kg i.p.).\nA femoral vein was exposed and a polyethylene tube filled with 0.002% heparin in saline was inserted. The other end of the polyethylene tube was connected to a three way cock valve for the intravenous injection of cancer cells. The animal was then placed in a stereotaxic unit (Type SRS-6 produced by Narishige Scientific Instrument Lab). Fur from the top of the head to the neck was shaved. The study area was disinfected with 70% ethanol. Skin and muscle over the cervical vertebrae were exposed. A hole was made using an 18 G×1 ½ needle passing through the dura via the cisterna magna. One end (2-3 mm) of an SP10 tube (5-6 cm long) was inserted into the subarachnoid space. The cannula was fixed with cyanoacrylic glue to the peripheral tissue. […]\nThe volume (μl) of CSF, WBC counts, and cancer cells counts was measured after the 3rd treatment for 8 hours."}, "[4]": {"system": "rats", "conditions": "cited from earlier work"}, "[5]": {"conditions": "20 mg/kg p.o., cited from earlier work"}, "[6]": {"conditions": "pranlukast-RCN9-arachidonic acid, 490 mg/kg p.o., rat"}}, "note": "Read-outs that look alike come from different tables or passages of the source.", "data": [{"compound": "O=C(Nc1cccc2c(=O)cc(-c3nnn[nH]3)oc12)c1ccc(OCCCCc2ccccc2)cc1", "note": "[pranlukast]", "values": [{"measurement": "inhibition of inflammation caused by arachidonic acid", "setting": "[1]; 450 mg/kg i.p., arachidonic acid 3.25 μg/2 μl", "value": "completely inhibits"}, {"measurement": "inhibition of the increase of CSF volume", "setting": "[1]; 490 mg/kg i.p. thirty minutes before arachidonic acid (3.25 μg/2 μl) into the subarachnoid space, rat", "value": "completely inhibited"}, {"measurement": "inhibition of the permeability of the brain capillary marked by WBC infiltration", "setting": "[1]; 490 mg/kg i.p. thirty minutes before arachidonic acid, rat", "value": "completely inhibited"}, {"measurement": "survival", "setting": "[2]", "value": "longer survival"}, {"measurement": "extravasation of tumor cells", "setting": "[3]; [6]", "value": "significantly inhibited"}, {"measurement": "increasing capillary permeability", "setting": "[3]; [6]", "value": "significantly inhibited"}, {"measurement": "effect when cancer cells present without arachidonic acid", "setting": "[3]; pranlukast-RCN9-saline", "value": "did not have any effect"}, {"measurement": "LD50", "setting": "[4]; p.o.", "value": "> 2000", "unit": "mg/kg"}, {"measurement": "LD50", "setting": "[4]; s.c.", "value": "> 2000", "unit": "mg/kg"}, {"measurement": "pranlukast in blood 24 hours after administration", "setting": "[5]; 24 hours", "value": "no pranlukast was observed"}, {"measurement": "time at which maximum blood concentration was attained", "setting": "[5]", "value": "within one hour"}, {"measurement": "time the maximum blood concentration was maintained", "setting": "[5]", "value": "at least 5 hours"}]}]}
